Assay results published in paper PMC11684002 (Journal of medicinal chemistry, 2020).

How the values were obtained:
Photostationary states = type: physicochemical; settings: for PSS, % trans-isomer, dark: dark-adapted
[1] = target: T1, human PPARα ligand binding domain (Gal4 hybrid) (Homo sapiens, UniProt Q07869); assay: Gal4 hybrid reporter gene assay, PPARα; settings: trans-isomer in the dark, HEK293T
T1 sequence (Q07869 239-466 limits assumed): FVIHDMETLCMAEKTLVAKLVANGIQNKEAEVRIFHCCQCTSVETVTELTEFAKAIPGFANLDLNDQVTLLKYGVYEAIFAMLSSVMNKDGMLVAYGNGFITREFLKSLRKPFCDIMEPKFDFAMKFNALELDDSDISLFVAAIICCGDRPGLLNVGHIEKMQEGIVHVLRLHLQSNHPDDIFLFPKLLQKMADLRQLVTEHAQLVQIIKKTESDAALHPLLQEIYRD

[2] = test system: human PPAR response element (PPRE), endogenous PPARγ; assay: PPRE reporter gene assay in PPARγ expressing HepG2 cells; type: cell-based; settings: trans-isomer
PPARγ = settings: read-out: PPARγ agonist EC50; cited from earlier work
[3] = after 365 nm illumination, CDCl3
[4] = after 460 nm illumination, CDCl3

Row | SMILES | PSS, % trans-isomer, 365 nm (Photostationary states; [3]) [%] | PSS, % trans-isomer, 460 nm (Photostationary states; [4]) [%] | PSS, % trans-isomer, dark (Photostationary states; CDCl3) [%] | EC50 (PPARγ) [µM] | further results
1 | O=C(c1ccccc1)c1ccccc1N[C@@H](Cc1ccc(/N=N/c2ccccc2)cc1)C(=O)O [AzoGW1929, (S,E)-2-((2-benzoylphenyl)amino)-3-(4-(phenyldiazenyl)phenyl)propanoic acid] | – | – | – | – | PSS, % trans-isomer, 365 nm (Photostationary states; after 365 nm illumination for five minutes, MeOD-d4): 67%; PSS, % trans-isomer, 460 nm (Photostationary states; after 460 nm illumination for five minutes, MeOD-d4): 76%; PSS, % trans-isomer, dark (Photostationary states; MeOD-d4): 95%
2 | O=C1NC(=O)C(Cc2ccc(/N=N/c3ccccc3)cc2)S1 (stereo not shown) [AzoRosi, (E)-5-(4-(phenyldiazenyl)benzyl)thiazolidine-2,4-dione] | 4 | 80 | 100 | – | PPARα activation at 10 μM [1]: 8% activation at 10 μM
3 | Cc1ccccc1-c1ccc(/N=N/c2ccc(CC3SC(=O)NC3=O)cc2)cc1 (stereo not shown) [AzoRosi-4, (E)-5-(4-((2′-methyl-[1,1′-biphenyl]-4-yl)diazenyl)benzyl)thiazolidine-2,4-dione] | 23 | 83 | 99 | – | PPRE activation at 10 μM [2]: some PPRE activation was observed
4 | O=C1NC(=S)NC(=O)C1=Cc1ccc(OCc2ccccc2)c(Cl)c1 [MDG548] | – | – | – | 0.215 | –
